Measured values from ChEMBL document CHEMBL2390898, “Optimizing the control of apoptosis by amide/triazole isosteric substitution in a constrained peptoid” (Eur J Med Chem, 2013).
Activity calls are given as the source filed them. No cut-off for these calls is given here.

Tests used:
[1] = target: T1, Caspase-9 (Homo sapiens) (UniProt P55211); test: Inhibition of recombinant caspase-9 (unknown origin)
T1 sequence (whole entry): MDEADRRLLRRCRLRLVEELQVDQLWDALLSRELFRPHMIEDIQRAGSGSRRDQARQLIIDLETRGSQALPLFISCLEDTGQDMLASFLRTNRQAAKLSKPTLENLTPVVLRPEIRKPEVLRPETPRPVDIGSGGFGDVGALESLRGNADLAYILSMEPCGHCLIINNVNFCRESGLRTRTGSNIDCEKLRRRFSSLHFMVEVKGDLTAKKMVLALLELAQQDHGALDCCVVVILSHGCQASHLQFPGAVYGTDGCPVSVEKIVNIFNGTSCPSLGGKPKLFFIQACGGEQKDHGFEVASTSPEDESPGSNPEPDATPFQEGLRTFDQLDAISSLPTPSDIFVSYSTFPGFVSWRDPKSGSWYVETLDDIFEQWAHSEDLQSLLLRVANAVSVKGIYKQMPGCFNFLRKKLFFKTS

[2] = target: T2, Apoptotic protease-activating factor 1 (Homo sapiens) (UniProt O14727); test: Binding affinity to Apaf1 (unknown origin) assessed as inhibition of procaspase-9 activity
T2 sequence (whole entry): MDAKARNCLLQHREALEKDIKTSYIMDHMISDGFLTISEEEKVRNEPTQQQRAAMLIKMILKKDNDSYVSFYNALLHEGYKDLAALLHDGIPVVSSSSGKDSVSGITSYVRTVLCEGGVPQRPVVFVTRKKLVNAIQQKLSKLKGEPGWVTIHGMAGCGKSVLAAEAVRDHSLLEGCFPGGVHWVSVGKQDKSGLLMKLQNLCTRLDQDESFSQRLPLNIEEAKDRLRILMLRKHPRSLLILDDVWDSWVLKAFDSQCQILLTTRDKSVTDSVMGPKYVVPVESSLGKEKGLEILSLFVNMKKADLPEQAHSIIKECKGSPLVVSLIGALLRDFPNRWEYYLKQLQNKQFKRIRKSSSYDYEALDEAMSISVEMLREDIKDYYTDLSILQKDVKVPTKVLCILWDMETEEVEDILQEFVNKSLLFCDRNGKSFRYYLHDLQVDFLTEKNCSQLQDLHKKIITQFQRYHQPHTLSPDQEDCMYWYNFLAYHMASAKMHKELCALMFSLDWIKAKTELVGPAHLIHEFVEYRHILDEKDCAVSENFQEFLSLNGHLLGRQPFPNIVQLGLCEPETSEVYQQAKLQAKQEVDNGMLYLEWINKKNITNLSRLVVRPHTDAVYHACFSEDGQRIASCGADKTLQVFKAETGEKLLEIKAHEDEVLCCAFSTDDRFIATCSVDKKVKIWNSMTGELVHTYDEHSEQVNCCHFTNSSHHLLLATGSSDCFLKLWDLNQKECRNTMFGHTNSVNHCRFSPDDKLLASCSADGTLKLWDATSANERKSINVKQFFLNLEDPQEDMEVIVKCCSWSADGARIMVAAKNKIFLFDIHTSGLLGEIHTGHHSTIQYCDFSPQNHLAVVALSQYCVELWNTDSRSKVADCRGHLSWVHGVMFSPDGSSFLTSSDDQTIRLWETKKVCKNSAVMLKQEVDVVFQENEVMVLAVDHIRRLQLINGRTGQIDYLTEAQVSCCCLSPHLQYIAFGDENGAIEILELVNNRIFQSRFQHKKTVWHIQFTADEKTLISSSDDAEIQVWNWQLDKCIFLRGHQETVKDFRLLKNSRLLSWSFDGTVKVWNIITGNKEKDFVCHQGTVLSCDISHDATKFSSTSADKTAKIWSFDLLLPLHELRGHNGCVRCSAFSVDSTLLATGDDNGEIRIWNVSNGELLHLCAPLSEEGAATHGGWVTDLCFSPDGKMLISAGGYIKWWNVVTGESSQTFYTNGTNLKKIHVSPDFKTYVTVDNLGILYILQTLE

inhibition [1]	inhibition [2]	SMILES
inactive	Active	O=C1C(c2cn(CCc3ccc(Cl)cc3Cl)nn2)N(CCC(c2ccccc2)c2ccccc2)C(=O)CN1CCc1ccc(Cl)cc1Cl (stereo not drawn)
inactive	Active	NC(=O)CN(CCc1ccc(Cl)cc1Cl)C(=O)CC1C(=O)N(CCc2ccc(Cl)cc2Cl)CC(=O)N1CCC(c1ccccc1)c1ccccc1 (racemic)
inactive	Active	O=C1C(c2cnnn2CCc2ccc(Cl)cc2Cl)N(CCC(c2ccccc2)c2ccccc2)C(=O)CN1CCc1ccc(Cl)cc1Cl (racemic)
inactive	Active	O=C1CC(C(=O)NCCc2ccc(Cl)cc2Cl)(c2cnn(CCc3ccc(Cl)cc3Cl)n2)N1CCC(c1ccccc1)c1ccccc1 (racemic)
